For orientation: GI50 means the concentration that inhibits growth by half.

In test [1] the test system is PWR-1E cells. The test can be described thus: MTT cell proliferation assay, 7 d, PWR-1E. In kind it is cell-based. The note with it: Homo sapiens, 168 h, immortalized untransformed prostate cells, 7 d treatment. The source says:
(§1) Androgen-dependent (LNCaP), androgen-independent (PC-3) and castration resistant (C4-2B and 22Rv1) human prostate carcinoma cells were procured from American Type Culture Collection, Manassas, VA, USA and maintained in RPMI 1640 media (Gibco-Life Technologies, Grand Island, NY, USA) supplemented with 10% fetal bovine serum and 1% penicillin/streptomycin. […] Immortalized untransformed prostate epithelial cells, PWR1E from American Type Culture Collection were maintained in serum-free Keratinocyte media (Gibco) supplemented with epidermal growth factor and bovine pituitary extract. All cell lines were maintained in a 37 °C/5% CO2 humidified atmosphere.
(§2) Cell proliferation assay was performed as described previously. For cell growth experiment, cells were treated with the NRs for 7 days. MTT assay was performed at the end of the experiment. Calculations of combination indices were done using the Calcusyn program (Biosoft, Cambridge, United Kingdom). For colony formation assay, cells were plated 1000 per well in complete media and allowed to adhere for 24 h. The next day cells were treated with indicated compounds (5 μM). After 24 h compound containing media were removed, and cells were allowed to form colonies in complete media. Approximately 2 weeks later the colonies were fixed, stained with 0.5% crystal violet (sigma) for 30 min and counted manually. Results represent the mean ± standard deviation of three independent experiments.
For orientation: Tetrazolium dyes change colour on reduction, which living cells bring about.

For test [2], the system named is PC-3 cells. The test can be described thus: MTT cell proliferation assay, 7 d, PC-3. In kind it is cell-based. The note with it: Homo sapiens, PC-3, 168 h, 7 d treatment.
Source text: as §1, §2

Test [3] concerns C4-2B cells. The test can be described thus: MTT cell proliferation assay, 7 d, C4-2B. In kind it is cell-based. The note with it: Homo sapiens, 168 h, 7 d treatment.
Source text: as §1, §2

Test [4] relates to 22Rv1 cells. The test can be described thus: MTT cell proliferation assay, 7 d, 22Rv1. In kind it is cell-based. The note with it: Homo sapiens, 22Rv1, 168 h, 7 d treatment.
Source text: as §1, §2

Test [5] relates to LNCaP cells. The test can be described thus: MTT cell proliferation assay, 7 d, LNCaP. In kind it is cell-based, human. The note with it: Homo sapiens, LNCaP, 168 h, 7 d treatment.
Source text: as §1, §2

Test [6] deals with MR49F cells. Put plainly: MTT growth inhibition in Enzalutamide resistant MR49F cells. In kind it is cell-based, human. As to conditions: for GI50: Homo sapiens, MR49F. The method, then:
Figure 2 Effect of NRs on PCa cell growth and colony formation (A) Representative photographs of colonies formed in PCa cells at 14th day after initial treatment with specified compounds (5 μmol/L). Colonies were fixed with methanol and stained with crystal violet. (B) Data represents the mean ± S.E from three independent experiments. *, P< 0.05; ♣, P<0.01 compared to vehicle treated control. […] NRs that had promising inhibitory effect on cell proliferation on LNCaP cells were tested for their growth inhibitory effect in MR49F cells in comparison with Casodex and Abiraterone acetate by MTT assay.
as §1, §2

Test [7] deals with PCa cells. Put plainly: MTT cell viability in PCa cells (LNCaP, PC-3, C4-2B, 22Rv1). As to conditions: for GI50: Homo sapiens, range over PCa cell lines; for growth inhibitory effect or differential sensitivity: PCa cells vs untransformed cells. In kind it is cell-based, human. As for the experimental part: as §2
Test [8] has as its system PC-3 cells. Put plainly: Boyden chamber matrigel invasion assay. In kind it is cell-based, human. The note with it: PC-3, 5 μM, 24 h. The method, then: Figure 5 Anti-migratory and anti-invasive potential of NRs (A) Effect of NRs treatment (5 μmol/L) on PC-3 cell migration was assessed by wound healing assay after 24 h of wound formation. Representative photomicrographs of initial and final wounds are shown at 100x magnification. (B) Effect of NRs on PC-3 cell invasion was evaluated by transwell migration assay. PC-3 cells were seeded on matrigel coated boyden chamber and treated with NRs (5 μmol/L, 24 h). Photographs represent the extent of cell invasion in each of the treated cells. (C) Western blot analysis of the effect of NRs on the expression of cadherins in PC-3 cells. Cells were treated with indicated compound 20 μmol/L for 24 h.
The invasion assay in PC-3 cells was performed using Matrigel (BD Biosciences, Bedford, MA, USA)-coated transwell cell culture chambers (8 μm pore size, EMD Millipore, Temecula, CA, USA) as described previously (43). Briefly, PC-3 cells (5 × 10^4 cells/well) were cultured in the upper chamber of the transwell insert for 24 h in serum-free RPMI-1640 medium. The cells were then treated with 5 μM of indicated compounds for 24 h. RPMI-1640 medium containing 10% FBS was placed in the lower chamber. At the end of incubation, the top surface of the non-migrated cells were scraped gently with cotton swabs and the cells on the lower surface of the membrane (migrated cells) were fixed for 15 min with cold methanol and stained with crystal violet. Cells that had migrated to the bottom of the membrane were visualized and counted using an inverted microscope. For each replicate (n = 3), cells in three randomly selected fields were counted and averaged.

Test [9] has as its system PC-3 cells. Put plainly: Wound healing migration assay. In kind it is cell-based, human. The note with it: 5 μM, 24 h. The method, then:
Figure 5 Anti-migratory and anti-invasive potential of NRs (A) Effect of NRs treatment (5 μmol/L) on PC-3 cell migration was assessed by wound healing assay after 24 h of wound formation. Representative photomicrographs of initial and final wounds are shown at 100x magnification. (B) Effect of NRs on PC-3 cell invasion was evaluated by transwell migration assay. PC-3 cells were seeded on matrigel coated boyden chamber and treated with NRs (5 μmol/L, 24 h). Photographs represent the extent of cell invasion in each of the treated cells. (C) Western blot analysis of the effect of NRs on the expression of cadherins in PC-3 cells. Cells were treated with indicated compound 20 μmol/L for 24 h. […] For wound healing assay highly metastatic PC-3 cells were plated in a 24 well plate at a seeding density of 5 × 10^5 cells/ well and allowed to form a confluent monolayer for 24 h. Cells were made dormant by pretreating with 0.5 μmol/L mitomycin C for 2 h to ensure that wounds are filled due to cell migration and not by cell proliferation. Subsequently, the monolayer was scratched with a pipette tip, washed with media to remove floating cells, and photographed (time 0 h). Cells were then treated with indicated compounds (5 μM) and the experiment was terminated as soon as wound was completely filled in vehicle treated controls. Cells were then photographed again using Nikon TE2000 microscope at three randomly selected sites per well [43].

Setting [10] is: DHT induced, read-out: GI50 LNCaP, DHT induced.
Where [11] appears, read: read-out: GI50 MR49F (Figure 2C).

Each structure is given as a SMILES string. Where two headings read alike, the source gives them in different places.

On to `CC(=O)O[C@H]1CC[C@@]2(C)C(=CC[C@@H]3[C@@H]2CC[C@]2(C)C(c4cccnc4)=CC[C@@H]32)C1` [AA, Abiraterone acetate, reference compound], for which the 50% growth inhibitory concentration (GI50) stood at 20.2 µM in test [1]; 7.62 µM in [2]; 1470 nM in test [3]; 2.97 µM in test [4]; 2.45 µM in test [5] (read-out: GI50 LNCaP); 2.69 µM in [5] (setting [10]). In addition, the GI50 in test [6] (read-out: GI50 MR49F) amounted to 27.5 µM.
As for `CC1=C(/C=C/C(C)=C/C=C/C(C)=C/C(=O)O)C(C)(C)CCC1` [ATRA, all-trans-retinoic acid, reference compound], the GI50 in test [1] amounted to 75.3 µM; in test [2], 36.3 µM; in test [3] it was 11700 nM; in test [4] it was 25.1 µM; in [5] (read-out: GI50 LNCaP), 47.9 µM; in [5] (setting [10]), 39.8 µM.
Regarding `CC(O)(CS(=O)(=O)c1ccc(F)cc1)C(=O)Nc1ccc(C#N)c(C(F)(F)F)c1` (stereo not drawn) [Casodex, reference compound], the GI50 came out at 69.1 µM in [1]; 9.15 µM in test [2]; 1510 nM in test [3]; 3.81 µM in test [4]; 2.61 µM in test [5] (read-out: GI50 LNCaP); 2.95 µM in [5] (setting [10]). In addition, in test [6] (read-out: GI50 MR49F), the concentration for 50% growth inhibition (GI50) stood at 43.6 µM.
With `CC1=C(/C=C/C(C)=C/C=C/C(C)=C/C(=O)Nc2ccc(O)cc2)C(C)(C)CCC1` [Compound 4-HPR, 4-hydroxyphenyl retinamide, reference compound], the 50% growth inhibitory concentration (GI50) was determined as 1.07 µM in test [1]; 3.54 µM in [2]; 3110 nM in [3]; 3.23 µM in [4]; 2.69 µM in test [5] (read-out: GI50 LNCaP); 2.45 µM in [5] (setting [10]).
For the compound `CNC(=O)c1ccc(N2C(=S)N(c3ccc(C#N)c(C(F)(F)F)c3)C(=O)C2(C)C)cc1F` [MDV3100, Enzalutamide, reference compound], the figures for the GI50 in [1], in test [3] and in test [6] (setting [11]) were 17 µM, 1540 nM and over 100 µM, respectively. Also, in test [6] (up to a concentration of 100 μmol/L), the “effect on growth of MR49F cells” value is recorded as “no significant effect”.
Turning to `CC1=C(/C=C/C(C)=C/C=C/C(C)=C/C(=O)O)C(C)(C)CCC1n1ccnc1` (stereo not drawn) [VN/14-1], the GI50 in test [1] was 69.2 µM; in [2], 36.3 µM; in [3], 9760 nM; in [4], 12.9 µM; in test [5] (read-out: GI50 LNCaP), 11.3 µM; in [5] (setting [10]) it was 12.9 µM.
Take `CC1=C(/C=C/C(C)=C/C=C/C(C)=C/C(=O)Nc2ccc(O)cc2)C(C)(C)CCC1n1ccnc1` (stereo not drawn) [VN/66-1]: the GI50 was found to be 19.1 µM in [1]; 10.7 µM in [2]; 2380 nM in test [3]; 2.95 µM in test [4]; 4.67 µM in test [5] (read-out: GI50 LNCaP); 1.54 µM in test [5] (setting [10]). The GI50 in test [6] (setting [11]) stood at 6.76 µM.
For `CC1=C(/C=C/C(C)=C/C=C/C(C)=C/C(=O)NC(C)(C)C)C(C)(C)CCC1n1ccnc1` (stereo not drawn) [VNLG-145], the GI50 in test [1] came to 25.1 µM; in [2], 4.26 µM; in test [3], 2140 nM; in test [4], 2.23 µM; in test [5] (read-out: GI50 LNCaP) it was 2.45 µM; in test [5] (setting [10]), 2.23 µM. Also, the 50% growth inhibitory concentration (GI50) in test [6] (setting [11]) is 3.89 µM; in test [7], 1.5 to 5.5 µM.
With `CC1=C(/C=C/C(C)=C/C=C/C(C)=C/C(=O)Nc2cc(C(F)(F)F)ccc2C(F)(F)F)C(C)(C)CCC1n1ccnc1` (stereo not drawn) [VNLG-146], the GI50 was determined as 63.1 µM in test [1]; 57.5 µM in test [2]; 11700 nM in test [3]; 39.8 µM in test [4]; 57.5 µM in test [5] (read-out: GI50 LNCaP); 52.5 µM in test [5] (setting [10]). Moreover, in test [7], the “growth inhibitory effect or differential sensitivity” value is on record as “did not display any notable growth inhibitory effect or differential sensitivity”.
In the case of `CC1=C(/C=C/C(C)=C/C=C/C(C)=C/C(=O)Nc2ncnc3[nH]cnc23)C(C)(C)CCC1n1ccnc1` (stereo not drawn) [VNLG-148], the GI50 in test [1] is 43.6 µM; in test [2], 36.3 µM; in [3], 15500 nM; in [4] it was 39.8 µM; in [5] (read-out: GI50 LNCaP), 22.9 µM; in test [5] (setting [10]), 19.1 µM. Further, the “growth inhibitory effect or differential sensitivity” value in test [7] is “did not display any notable growth inhibitory effect or differential sensitivity”.
Consider `CC1=C(/C=C/C(C)=C/C=C/C(C)=C/C(=O)Nc2ccccc2)C(C)(C)CCC1n1ccnc1` (stereo not drawn) [VNLG-153], for which the concentration for 50% growth inhibition (GI50) in [1] is 39.8 µM; in test [2] it was 4.36 µM; in test [3], 2970 nM; in [4], 2.23 µM; in [5] (read-out: GI50 LNCaP), 3.23 µM; in test [5] (setting [10]), 2.69 µM. Besides, the values for the concentration for 50% growth inhibition (GI50) in test [6] (setting [11]) and in [7] were 7.41 µM and 1.5 to 5.5 µM, respectively. In test [8], the “percentage of cell invasion compared to control” value amounted to 35. Also, the “PC-3 cell migration to the denuded zone” value in test [9] is “potentially suppressed”.

These data come from article PMC4413647, “Simultaneous targeting of androgen receptor (AR) and MAPK-interacting kinases (MNKs) by novel retinamides inhibits growth of human prostate cancer cell lines” (Oncotarget, 2014).
